# US20260297070A1, “CYCLIC [COMPOUND LEFT OUT] WRN INHIBITORS” (Nimbus Wadjet, Inc., priority 2023, published 2026)
# Target: T1, human Werner helicase (WRN-BV08, Uniprot Q14191, amino acids 517-1235 with L1074F point mutation) (Homo sapiens, UniProt Q14191, L1074F)
# T1 construct: Uniprot Q14191, amino acids 517-1235 with L1074F point mutation; TEV-cleavable 8×His (C, cleaved yes); made in house; host or cells: Sf9 insect cells (baculovirus)
# Assay: WRN (BV08) ADP-Glo Assay
# Assay type: biochemical
# Details: 0.15 nM WRN, 5 μM ATP, 0.1 nM DNA duplex, 15 min preincubation, 60 min at 25° C., pH 7.5, 1% DMSO; read-out: ADP-Glo_hWRN_IC50
# Method in brief: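 ADP produced by WRN helicase fragment 517-1235 (L1074F, baculovirus/Sf9, untagged) read by ADP-Glo luminescence after 60 min at 25 °C with 5 μM ATP and 0.1 nM duplex DNA, following 15 min compound preincubation. Final enzyme 0.15 nM in Bicine pH 7.5 buffer, 1% DMSO; 20 μM NSC-617145 defined full inhibition.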
# T1 sequence (Q14191 with tags, fused parts or gaps L1074F limits assumed): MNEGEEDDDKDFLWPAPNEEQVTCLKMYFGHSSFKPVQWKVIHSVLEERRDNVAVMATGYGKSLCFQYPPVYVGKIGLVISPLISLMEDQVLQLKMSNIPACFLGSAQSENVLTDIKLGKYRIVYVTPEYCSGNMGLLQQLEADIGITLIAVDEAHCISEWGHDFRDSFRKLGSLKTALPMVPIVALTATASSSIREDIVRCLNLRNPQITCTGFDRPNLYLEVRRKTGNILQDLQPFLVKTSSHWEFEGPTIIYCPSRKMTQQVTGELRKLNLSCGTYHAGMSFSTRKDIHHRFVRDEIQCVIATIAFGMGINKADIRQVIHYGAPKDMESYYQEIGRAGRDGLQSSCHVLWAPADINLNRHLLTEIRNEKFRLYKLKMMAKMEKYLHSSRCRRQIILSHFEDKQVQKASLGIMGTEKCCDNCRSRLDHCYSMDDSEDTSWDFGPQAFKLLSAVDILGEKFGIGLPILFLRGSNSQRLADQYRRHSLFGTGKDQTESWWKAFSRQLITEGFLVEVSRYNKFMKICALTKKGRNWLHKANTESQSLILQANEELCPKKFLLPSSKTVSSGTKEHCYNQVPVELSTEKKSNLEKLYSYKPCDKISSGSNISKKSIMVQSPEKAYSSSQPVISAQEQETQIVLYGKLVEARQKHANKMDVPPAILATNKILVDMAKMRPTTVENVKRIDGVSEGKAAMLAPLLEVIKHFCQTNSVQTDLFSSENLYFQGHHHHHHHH
row,Structure (SMILES),IC50
1,"CNC(=O)C(C(=O)N(Cc1ccnc(OC)c1)[C@@H]1C=CS(=O)(=O)C1)c1ccc(-c2ccc(F)c(F)c2)cc1F (stereo partly drawn) [I-688, N′-[(3R)-1,1-dioxo-2,3-dihydro-1lambda6-thiophen-3-yl]-N′-[(2-methoxypyridin-4-yl)methyl]-N-methyl-2-{3,3′,4′-trifluoro-[1,1′-biphenyl]-4-yl}propanediamide]",< 0.5 µM
2,"COc1cc(CN(C(=O)C(OCC#N)c2ccc(-c3ccc(F)c(F)c3)cc2F)[C@@H]2C=CS(=O)(=O)C2)ccn1 (stereo partly drawn) [I-691, 2-(cyanomethoxy)-N-[(3R)-1,1-dioxo-2,3-dihydro-1lambda6-thiophen-3-yl]-N-[(2-methoxypyridin-4-yl)methyl]-2-{3,3′,4′-trifluoro-[1,1′-biphenyl]-4-yl}acetamide]",0.5 to 5 µM
3,"COc1cc(CN(C(=O)C(c2ccc(-c3ccc(F)c(F)c3)cc2F)n2cc(OC(F)F)cn2)[C@@H]2C=CS(=O)(=O)C2)ccn1 (stereo partly drawn) [I-695, 2-[4-(difluoromethoxy)-1H-pyrazol-1-yl]-N-[(3R)-1,1-dioxo-2,3-dihydro-1lambda6-thiophen-3-yl]-N-[(2-methoxypyridin-4-yl)methyl]-2-{3,3′,4′-trifluoro-[1,1′-biphenyl]-4-yl}acetamide]",< 0.5 µM
4,"COc1ccc(CC(=O)N(Cc2ccncc2)C2C=CS(=O)(=O)C2)cc1OC(F)F (stereo not shown) [I-697, 2-[3-(difluoromethoxy)-4-methoxyphenyl]-N-(1,1-dioxo-2,3-dihydro-1lambda6-thiophen-3-yl)-N-[(pyridin-4-yl)methyl]acetamide]",> 50 µM
5,"O=C(Cc1ncc(-c2ccc(F)c(F)c2)cc1F)N(Cc1ccnc(OC(F)F)c1)C1C=CS(=O)(=O)C1 (stereo not shown) [I-698, N-{[2-(difluoromethoxy)pyridin-4-yl]methyl}-2-[5-(3,4-difluorophenyl)-3-fluoropyridin-2-yl]-N-(1,1-dioxo-2,3-dihydro-1lambda6-thiophen-3-yl)acetamide]",0.5 to 5 µM
6,"COc1cc(CN(C(=O)Cn2cc3cc(C(F)(F)F)ccc3n2)[C@@H]2C=CS(=O)(=O)C2)ccn1 [I-699, N-[(3R)-1,1-dioxo-2,3-dihydro-1lambda6-thiophen-3-yl]-N-[(2-methoxypyridin-4-yl)methyl]-2-[5-(trifluoromethyl)-2H-indazol-2-yl]acetamide]",0.5 to 5 µM
7,"CC(C)(N)c1ccc(CN(C(=O)Cc2ccc(S(F)(F)(F)(F)F)cc2)C2C=CS(=O)(=O)C2)cc1 (stereo not shown) [I-700, N-{[4-(2-aminopropan-2-yl)phenyl]methyl}-N-(1,1-dioxo-2,3-dihydro-1lambda6-thiophen-3-yl)-2-[4-(pentafluoro-lambda6-sulfanyl)phenyl]acetamide]",5 to 10 µM
8,"COc1cc(CN(C(=O)C(c2ccc(-c3ccc(F)c(F)c3)cc2F)n2cc(C(F)F)cn2)[C@@H]2C=CS(=O)(=O)C2)ccn1 (stereo partly drawn) [I-705, 2-[4-(difluoromethyl)-1H-pyrazol-1-yl]-N-[(3R)-1,1-dioxo-2,3-dihydro-1lambda6-thiophen-3-yl]-N-[(2-methoxypyridin-4-yl)methyl]-2-{3,3′,4′-trifluoro-[1,1′-biphenyl]-4-yl}acetamide]",0.5 to 5 µM
9,"COc1cc(CN(C(=O)C(c2ccc(-c3ccc(F)c(F)c3)cc2F)n2cc(C#N)cn2)[C@@H]2C=CS(=O)(=O)C2)ccn1 (stereo partly drawn) [I-706, 2-(4-cyano-1H-pyrazol-1-yl)-N-[(3R)-1,1-dioxo-2,3-dihydro-1lambda6-thiophen-3-yl]-N-[(2-methoxypyridin-4-yl)methyl]-2-{3,3′,4′-trifluoro-[1,1′-biphenyl]-4-yl}acetamide]",0.5 to 5 µM
10,"COc1cc(CN(C(=O)C(OCCS(C)(=O)=O)c2ccc(-c3ccc(F)c(F)c3)cc2F)[C@@H]2C=CS(=O)(=O)C2)ccn1 (stereo partly drawn) [I-707, N-[(3R)-1,1-dioxo-2,3-dihydro-1lambda6-thiophen-3-yl]-2-(2-methanesulfonylethoxy)-N-[(2-methoxypyridin-4-yl)methyl]-2-{3,3′,4′-trifluoro-[1,1′-biphenyl]-4-yl}acetamide]",0.5 to 5 µM
11,"COc1cc(CN(C(=O)Cn2cc(-c3ccc(F)c(F)c3)c(C)n2)[C@@H]2C=CS(=O)(=O)C2)ccn1 [I-713, 2-[4-(3,4-difluorophenyl)-3-methyl-1H-pyrazol-1-yl]-N-[(3R)-1,1-dioxo-2,3-dihydro-1lambda6-thiophen-3-yl]-N-[(2-methoxypyridin-4-yl)methyl]acetamide]",10 to 50 µM
12,"COc1ccc2c(c1)CCCC2C(=O)N(Cc1ccncc1)C1C=CS(=O)(=O)C1 (stereo not shown) [I-717, N-(1,1-dioxo-2,3-dihydro-1lambda6-thiophen-3-yl)-6-methoxy-N-[(pyridin-4-yl)methyl]-1,2,3,4-tetrahydronaphthalene-1-carboxamide]",> 50 µM
13,"O=C(Cn1cc(-c2ccc(F)c(F)c2)cn1)N(Cc1nc(C2CC2(F)F)cs1)C1C=CS(=O)(=O)C1 (stereo not shown) [I-718, N-{[4-(2,2-difluorocyclopropyl)-1,3-thiazol-2-yl]methyl}-2-[4-(3,4-difluorophenyl)-1H-pyrazol-1-yl]-N-(1,1-dioxo-2,3-dihydro-1lambda6-thiophen-3-yl)acetamide]",< 0.5 µM
14,"COCCOc1cc(CN(C(=O)Cc2ccc(S(F)(F)(F)(F)F)cc2)C2C=CS(=O)(=O)C2)ccn1 (stereo not shown) [I-719, N-(1,1-dioxo-2,3-dihydro-1lambda6-thiophen-3-yl)-N-{[2-(2-methoxyethoxy)pyridin-4-yl]methyl}-2-[4-(pentafluoro-lambda6-sulfanyl)phenyl]acetamide]",< 0.5 µM
15,"COc1cc(CN(C(=O)Cn2cc3cc(OC(F)(F)F)ccc3n2)[C@@H]2C=CS(=O)(=O)C2)ccn1 [I-720, N-[(3R)-1,1-dioxo-2,3-dihydro-1lambda6-thiophen-3-yl]-N-[(2-methoxypyridin-4-yl)methyl]-2-[5-(trifluoromethoxy)-2H-indazol-2-yl]acetamide]",0.5 to 5 µM
16,"COc1cc(CN(C(=O)Cn2ncc3cc(OC(F)(F)F)ccc32)[C@@H]2C=CS(=O)(=O)C2)ccn1 [I-721, N-[(3R)-1,1-dioxo-2,3-dihydro-1lambda6-thiophen-3-yl]-N-[(2-methoxypyridin-4-yl)methyl]-2-[5-(trifluoromethoxy)-1H-indazol-1-yl]acetamide]",0.5 to 5 µM
17,"COc1cc(CN(C(=O)Cn2nc(C)c3cc(C(F)(F)F)ccc32)[C@@H]2C=CS(=O)(=O)C2)ccn1 [I-722, N-[(3R)-1,1-dioxo-2,3-dihydro-1lambda6-thiophen-3-yl]-N-[(2-methoxypyridin-4-yl)methyl]-2-[3-methyl-5-(trifluoromethyl)-1H-indazol-1-yl]acetamide]",> 50 µM
18,"O=C(Cn1cc(-c2ccc(F)c(F)c2)cn1)N(Cc1nc([C@@H]2C[C@H]2F)cs1)C1C=CS(=O)(=O)C1 (stereo partly drawn) [I-723, 2-[4-(3,4-difluorophenyl)-1H-pyrazol-1-yl]-N-(1,1-dioxo-2,3-dihydro-1lambda6-thiophen-3-yl)-N-({4-[(1S,2R)-2-fluorocyclopropyl]-1,3-thiazol-2-yl}methyl)acetamide]",< 0.5 µM
19,"O=C(Cn1cc(-c2ccc(F)c(F)c2)cn1)N(Cc1nc([C@H]2C[C@H]2F)cs1)C1C=CS(=O)(=O)C1 (stereo partly drawn) [I-724, 2-[4-(3,4-difluorophenyl)-1H-pyrazol-1-yl]-N-(1,1-dioxo-2,3-dihydro-1lambda6-thiophen-3-yl)-N-({4-[(1R,2R)-2-fluorocyclopropyl]-1,3-thiazol-2-yl}methyl)acetamide]",< 0.5 µM
